In this experiment the target is T1, NudC (Escherichia coli, UniProt P32664).
T1 sequence (P32664 1-257): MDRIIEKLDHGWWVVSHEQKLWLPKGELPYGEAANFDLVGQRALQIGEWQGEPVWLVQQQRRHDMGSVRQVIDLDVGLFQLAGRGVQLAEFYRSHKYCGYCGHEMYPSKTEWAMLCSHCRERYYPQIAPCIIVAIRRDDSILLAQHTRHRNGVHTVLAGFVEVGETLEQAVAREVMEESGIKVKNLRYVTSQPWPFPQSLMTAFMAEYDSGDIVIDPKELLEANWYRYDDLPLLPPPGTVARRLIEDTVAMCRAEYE
The experiment can be described thus: in vitro de-capping of NAD-RNA, gel assay, NudC activity plotted against ppGpp. The format is biochemical.

Compound `Nc1nc2c(ncn2[C@@H]2O[C@H](COP(=O)(O)OP(=O)(O)O)[C@@H](OP(=O)(O)OP(=O)(O)O)[C@H]2O)c(=O)[nH]1` [ppGpp] displayed a Ki of about 70 µM.

(Values after article doi:10.1101/2023.03.31.535138v1 (biorxiv, 2023).)
